Test results: PMC10143822, “Structural Adaptation of the Single-Stranded DNA-Binding Protein C-Terminal to DNA Metabolizing Partners Guides Inhibitor Design” (Pharmaceutics, 2023)
Where a SMILES comes first, the peptide text is derived from it. Where no end group is shown, it is not given here. [ ]: non-standard residue; d: D form. Phe(4-Cl) = N[C@@H](Cc1ccc(Cl)cc1)C(=O)O; Phe(4-F) = N[C@@H](Cc1ccc(F)cc1)C(=O)O; NMeI = CC[C@H](C)[C@H](NC)C(=O)O; 3Pal = N[C@@H](Cc1cccnc1)C(=O)O; 2Thi = N[C@@H](Cc1cccs1)C(=O)O; β3hD = NC(CC(=O)O)CC(=O)O

Assays:
[1] = target: T1, ExoI (Escherichia coli, UniProt P04995); test: biochemical; type: binding, E. coli
T1 construct: His-tag (cleaved yes); host or cells: E. coli BL21 (DE3) pLysS
Procedure: (§1) Triplicate measurements were performed using a Clariostar Plus Microplate Reader in 384-well plates for all fluorescence anisotropy (FA) experiments. The settings were 25 °C, excitation at 485 nm, emission at 510 nm, settling time of 0.2 s, and 200 flashes per well.
(§2) Competition fluorescence anisotropy experiments were carried out as follows: protein (0.5 μM either ExoI or RecO) was incubated with 50 nM F-wtSSB peptide and 0–500 μM unlabeled wtSSB (or a variant) peptide for 30 min at room temperature. For direct fluorescence anisotropy measurements, 16 µM ExoI and 7.5 µM RecO were used in the first well. After serial dilution, either 50 nM of F-mSSB or F-sSSB was added to the wells and then incubated for 30 min. Buffers used included 20 mM Tris-HCl (pH 8.0), 100 mM NaCl, 1 mM MgCl2, 1 mM 2-mercaptoethanol, 10% (v/v) glycerol, for ExoI and 20 mM Tris-HCl (pH 8.0), 200 mM NaCl, 1 mM 2-mercaptoethanol, 10% (v/v) glycerol, and 0.01% Triton-X 100 for RecO [37].
(§3) Fluorescence anisotropy values were normalized and are shown as bound fractions (BF, %). BF=r−rmin/λ(rmax−r)+r−rmin, I=2∗PG+S, r=S−PG/I, where r: anisotropy, I: total intensity, P: perpendicular intensity, S: parallel intensity, G: an instrument factor set to 1, BF: ligand fraction bound, and λ=λbound/λunbound=1 .
(§4) Competitive fluorescence anisotropy was analyzed in Origin Pro 9.5, and IC50 values were determined using the Logistic Nonlinear fit function and are shown as plots for each mutated position for each protein in Figures S4 and S6. EC50 values from direct fluorescence anisotropy titrations were plotted in Origin 9.5. Values were determined using the Logistics Nonlinear fit function.

[2] = target: T2, RecO (Escherichia coli, UniProt P0A7H3); test: biochemical; type: binding; details: 0.5 μM RecO, 50 nM F-wtSSB tracer, 0–500 μM unlabeled peptide, 30 min room temperature; 20 mM Tris-HCl pH 8.0, 200 mM NaCl, 10% glycerol, 0.01% Triton-X 100; 25 °C; triplicate; read-out: IC50 on RecO, competitive fluorescence anisotropy
T2 construct: His-tag (TEV site) (N, cleaved yes); made in house; host or cells: E. coli Rosetta cells
Procedure: as §1, §2, §3, §4

T2 sequence (P0A7H3 whole entry): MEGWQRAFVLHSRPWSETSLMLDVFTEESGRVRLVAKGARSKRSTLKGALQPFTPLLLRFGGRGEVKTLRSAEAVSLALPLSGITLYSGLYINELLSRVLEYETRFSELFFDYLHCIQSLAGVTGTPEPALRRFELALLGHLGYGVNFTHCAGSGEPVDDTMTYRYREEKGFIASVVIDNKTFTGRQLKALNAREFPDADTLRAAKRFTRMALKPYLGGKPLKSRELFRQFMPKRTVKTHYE
T1 sequence (P04995 whole entry): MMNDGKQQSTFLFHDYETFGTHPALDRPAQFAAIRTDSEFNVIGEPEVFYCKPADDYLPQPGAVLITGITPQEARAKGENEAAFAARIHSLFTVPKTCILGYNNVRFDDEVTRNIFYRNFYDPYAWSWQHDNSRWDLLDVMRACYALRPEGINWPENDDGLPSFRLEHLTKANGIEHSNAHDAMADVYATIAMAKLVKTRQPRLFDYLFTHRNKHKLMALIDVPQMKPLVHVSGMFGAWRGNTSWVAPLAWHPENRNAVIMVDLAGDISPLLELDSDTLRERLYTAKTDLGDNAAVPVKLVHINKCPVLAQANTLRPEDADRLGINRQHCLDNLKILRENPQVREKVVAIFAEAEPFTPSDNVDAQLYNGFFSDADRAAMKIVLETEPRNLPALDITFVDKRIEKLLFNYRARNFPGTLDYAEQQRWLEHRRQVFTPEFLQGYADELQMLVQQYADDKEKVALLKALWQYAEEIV

| Compound | IC50 [1] [µM] | IC50 [2] [µM] |
| --- | --- | --- |
| CC[C@H](C)[C@H](NC(=O)[C@H](CC(=O)O)NC(=O)[C@H](CC(=O)O)NC(=O)[C@@H](CC(=O)O)NC(=O)[C@H](Cc1ccccc1)NC(=O)[C@H](CC(=O)O)NC(C)=O)C(=O)N1CCC[C@H]1C(=O)N[C@@H](Cc1ccccc1)C(=O)O [D-Asp3] (Ac-DF[dD]DDIPF-OH) | 6.82 ± 0.53 | 4.56 ± 1.53 |
| CC[C@H](C)[C@H](NC(=O)[C@H](CC(=O)O)NC(=O)[C@H](CC(=O)O)NC(=O)[C@H](CC(=O)O)NC(=O)[C@H](Cc1ccccc1)NC(=O)[C@H](CC(=O)O)NC(C)=O)C(=O)N1CCC[C@H]1C(=O)N[C@@H](Cc1cccs1)C(=O)O [Thi8] (Ac-DFDDDIP[2Thi]-OH) | 7.72 ± 0.51 | 8.59 ± 7.26 |
| CC[C@H](C)[C@H](NC(=O)[C@H](CC(=O)O)NC(=O)[C@H](CC(=O)O)NC(=O)[C@H](CC(=O)O)NC(=O)[C@H](Cc1cccs1)NC(=O)[C@H](CC(=O)O)NC(C)=O)C(=O)N1CCC[C@H]1C(=O)N[C@@H](Cc1ccccc1)C(=O)O [Thi2] (Ac-D[2Thi]DDDIPF-OH) | 4.22 ± 0.81 | 5.27 ± 0.28 |
| CC[C@H](C)[C@H](NC(=O)[C@H](CC(=O)O)NC(=O)[C@H](CC(=O)O)NC(=O)C[C@H](CC(=O)O)NC(=O)[C@H](Cc1ccccc1)NC(=O)[C@H](CC(=O)O)NC(C)=O)C(=O)N1CCC[C@H]1C(=O)N[C@@H](Cc1ccccc1)C(=O)O [β3-Asp3] (Ac-DF[β3hD]DDIPF-OH) | 3.65 ± 0.16 | 8.92 ± 0.39 |
| CC[C@H](C)[C@@H](C(=O)N1CCC[C@H]1C(=O)N[C@@H](Cc1ccccc1)C(=O)O)N(C)C(=O)[C@H](CC(=O)O)NC(=O)[C@H](CC(=O)O)NC(=O)[C@H](CC(=O)O)NC(=O)[C@H](Cc1ccccc1)NC(=O)[C@H](CC(=O)O)NC(C)=O [NM-Ile6] (Ac-DFDDD[NMeI]PF-OH) | 3.95 ± 0.54 | – |
| Ac-EFDDDIPF [Glu1] | 1.33 ± 0.09 | 5.17 ± 1.1 |
| CC[C@H](C)[C@H](NC(=O)[C@H](CC(=O)O)NC(=O)[C@H](CC(=O)O)NC(=O)[C@H](CC(=O)O)NC(=O)[C@H](Cc1ccccc1)NC(=O)[C@@H](CC(=O)O)NC(C)=O)C(=O)N1CCC[C@H]1C(=O)N[C@@H](Cc1ccccc1)C(=O)O [D-Asp1] (Ac-[dD]FDDDIPF-OH) | 5.55 ± 0.19 | 6.56 ± 1.4 |
| CC[C@H](C)[C@H](NC(=O)[C@H](CC(=O)O)NC(=O)[C@H](CC(=O)O)NC(=O)[C@H](CC(=O)O)NC(=O)[C@H](Cc1ccc(Cl)cc1)NC(=O)[C@H](CC(=O)O)NC(C)=O)C(=O)N1CCC[C@H]1C(=O)N[C@@H](Cc1ccccc1)C(=O)O [4-Cl-Phe2] (Ac-D[Phe(4-Cl)]DDDIPF-OH) | – | 2.38 ± 0.27 |
| CC[C@H](C)[C@H](NC(=O)[C@H](CC(=O)O)NC(=O)[C@H](CC(=O)O)NC(=O)[C@H](CC(=O)O)NC(=O)[C@H](Cc1ccccc1)NC(=O)[C@H](CC(=O)O)NC(C)=O)C(=O)N1CCC[C@@H]1C(=O)N[C@@H](Cc1ccccc1)C(=O)O [D-Pro7] (Ac-DFDDDI[dP]F-OH) | 61.5 ± 16.2 | 11.6 ± 10.9 |
| CC[C@@H](C)[C@@H](NC(=O)[C@H](CC(=O)O)NC(=O)[C@H](CC(=O)O)NC(=O)[C@H](CC(=O)O)NC(=O)[C@H](Cc1ccccc1)NC(=O)[C@H](CC(=O)O)NC(C)=O)C(=O)N1CCC[C@H]1C(=O)N[C@@H](Cc1ccccc1)C(=O)O [D-Ile6] (Ac-DFDDD[dI]PF-OH) | 56 ± 18.4 | – |
| CC[C@H](C)[C@H](NC(=O)[C@H](CC(=O)O)NC(=O)[C@H](CC(=O)O)NC(=O)[C@H](CC(=O)O)NC(=O)[C@H](Cc1ccccc1)NC(=O)[C@H](CC(=O)O)NC(C)=O)C(=O)N1CCC[C@H]1C(=O)N[C@@H](Cc1ccc(F)cc1)C(=O)O [4-F-Phe8] (Ac-DFDDDIP[Phe(4-F)]-OH) | 3.04 ± 0.64 | 4.07 ± 7.98 |
| Ac-NFDDDIPF [Asn1] | 9.31 ± 0.4 | 13.8 ± 17.2 |
| Ac-DFNDDIPF [Asn3] | 6.36 ± 0.36 | 14.2 ± 1.8 |
| CC[C@H](C)[C@H](NC(=O)[C@H](CC(=O)O)NC(=O)[C@H](CC(=O)O)NC(=O)[C@H](CC(=O)O)NC(=O)[C@H](Cc1ccccc1)NC(=O)[C@H](CC(=O)O)NC(C)=O)C(=O)N1CCC[C@H]1C(=O)N[C@@H](Cc1cccnc1)C(=O)O [3Pal8] (Ac-DFDDDIP[3Pal]-OH) | 19.9 ± 2.81 | 31.9 ± 4.16 |
